According to patent EP4741379A1, “CLASS OF PROGRAMMED CELL DEATH INHIBITORS, PREPARATION METHOD THEREFOR AND USE THEREOF” (SHANGHAI INSTITUTE OF ORGANIC CHEMISTRY, CHINESE ACADEMY OF …, priority 2023, dated 2025):
Read-outs that look alike come from different tables or passages of the source.

Tests used:
[1] = tested on: TNFα-induced systemic inflammatory response syndrome; experiment: TNFα-induced systemic inflammatory response syndrome in mice; type: in vivo; conditions: oral gavage 1 mg/kg, 20 minutes before TNFα tail vein injection
Description: A biological test protocol was adopted as follows: systemic inflammatory response syndrome (SIRS), also known as an inflammatory storm, refers to a nonspecific systemic inflammatory response caused by severe infections, multiple trauma, burns, ischemia-reperfusion, acute pancreatitis, and other infectious or non-infectious injuries. Under this condition, a large number of inflammatory factors are released, and in severe cases, the body loses control over the inflammatory response, leading to multiple organ failure and even death. Tail vein injection of tumor necrosis factor TNFα can induce systemic inflammatory response syndrome in mice, causing a drop in body temperature and death of mice. Effects of the representative compound QY-18-26 on TNFα-induced systemic inflammatory response syndrome were tested by monitoring changes in body temperature and death in mice. A known RIPK1 inhibitor Nec-1s was used as a control.
Method: The compound to be tested was dissolved in 0.5% carboxymethyl cellulose at the required concentration one day in advance and sonicated overnight. […] Body temperature changes of mice were monitored using an infrared thermometer after injection. Effects of the compound were calculated using Prism GraphPad statistical software.

RIPK1 (1-330) protein = target: T1, RIPK1 (1-330) protein (Homo sapiens, UniProt Q13546); experiment: RIPK1 kinase activity (ADP-Glo); type: biochemical; conditions: RIPK1 (1-330) 2 µM, 37°C, 2 hours; read-out: effective half-maximal inhibitory concentration
T1 construct: test effects of the compound QY-18-26 on kinase activity of RIPK1 (1-330) protein
T1 sequence (Q13546 1-330): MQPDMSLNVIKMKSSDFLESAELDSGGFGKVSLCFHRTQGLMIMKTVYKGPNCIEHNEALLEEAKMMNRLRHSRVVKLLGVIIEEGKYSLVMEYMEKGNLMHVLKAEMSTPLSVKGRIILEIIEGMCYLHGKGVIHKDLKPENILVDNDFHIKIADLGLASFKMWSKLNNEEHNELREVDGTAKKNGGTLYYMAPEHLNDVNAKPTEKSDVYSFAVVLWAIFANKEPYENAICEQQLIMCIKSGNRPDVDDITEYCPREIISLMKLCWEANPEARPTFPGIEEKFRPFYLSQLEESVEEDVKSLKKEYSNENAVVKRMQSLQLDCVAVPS
Protocol: A known clinical RIPK1 inhibitor SAR443122 was used as a control.
Method: Into a 384-well plate, RIPK1 (1-330) protein with a final concentration of 2 µM and ATP with a corresponding concentration (in 1X kinase buffer) with a final concentration of 5 µL were added. At least 3 replicates were set for each group and reacted at 37°C for 2 hours. 5 µL of ADP-Glo reagent was added to stop the kinase reaction and remove any remaining ATP in the reaction system. The plate was incubated at room temperature for 40 minutes, added with 10 µL of Kinase Detection Reagent, which was used to convert ADP to ATP and introduce luciferase and luciferin to detect ATP in the system, and reacted at room temperature for 1 hour. Luminescence was measured using a 7500 Fast Real-Time PCR System. IC50 values of compounds in inhibiting the kinase reaction were calculated using Prism GraphPad statistical software.

L929 cells = experiment: TNF-induced programmed necrosis of L929 cells (Cell Titer-Glo viability); type: cell-based, mouse; conditions: Mus musculus, L929
Protocol: (§1) The biological test protocol is adopted to test effects of the compound on TNF-induced programmed necrosis of FADD (Fas-associated death domain)-deficient Jurkat cells and L929 cells.
(§2) Two different stimulation methods were used: treating with tumor necrosis factor (TNFα) alone, or treating with TNFα in combination of mitochondrial-derived cysteine-aspartate activator (SMAC) SM164. Cell viability was determined by measuring chemiluminescence values, thereby assessing the bioactivity of the compounds in inhibiting programmed cell necrosis.
(§3) Method: FADD-deficient Jurkat cells: FADD-deficient Jurkat cells (human peripheral blood leukemia T cell line) were cultured in vitro. After reaching logarithmic growth phase, cells were collected and centrifuged at 1000 rpm for 5 minutes. A supernatant was discarded. A cell concentration was adjusted to 2.5×10^5/mL, and cells were seeded into a 384-well plate at 40 µL per well. In the corresponding wells, 5 µL of SM164 (50 nM) and compounds diluted with cell culture medium were added. After pre-treatment at 37°C for 1 hour, 5 µL of TNFα (50 ng/mL) diluted with cell culture medium was added to each well as a stimulation group, while 5 µL of culture medium was added as a control group. After the plate was incubated in a cell culture incubator (37°C, 5% CO2) for 14 hours, 15 µL of Cell Titer-Glo solution was added to each well. Then, the plate was incubated at room temperature for 30 minutes. Luminescence was measured to assess intracellular ATP levels. Cell viability was set at 100% for unstimulated DMSO control wells. […] The plate was placed in a cell culture incubator (37°C, 5% CO2) and cultured for 12 hours. In the corresponding wells, 5 µL of SM164 (500 nM) and compounds diluted with cell culture medium were added. After pre-treatment at 37°C for 1 hour, 5 µL of TNFα (500 ng/mL) diluted with cell culture medium was added to the wells as a stimulation group, while 5 µL of culture medium was added as a control group. After the plate was incubated in the cell incubator (37°C, 5% CO2) for 14 hours, 15 µL of Cell Titer-Glo solution was added to each well. Then, the plate was incubated at room temperature for 30 minutes, and luminescence was measured to assess intracellular ATP levels. Cell viability was set at 100% for unstimulated DMSO control wells. EC50 values of the compounds were calculated using Prism GraphPad statistical software.

[2] = tested on: FADD-deficient Jurkat cells; experiment: TNF-induced programmed necrosis of FADD-deficient Jurkat cells (Cell Titer-Glo viability); type: cell-based, human; conditions: for EC50: Homo sapiens, Jurkat
Protocol: as §1, §2, §3

[3] = Brain penetration (brain/plasma drug concentrations) in rats; type: in vivo
Protocol: (§4) A biological test protocol was adopted to test brain/plasma drug concentrations of the compound in living mice and rats. To verify the brain penetration properties of the compounds of the present disclosure in vivo, a representative compound QY-18-26 was selected. Single administration via oral gavage (PO, 10 mg/kg) or intravenous injection (IV, 2 mg/kg) was used to test brain/plasma drug concentrations of the compound in mice (n = 3) at different time points. At the same time, single administration via oral gavage (PO, 5 mg/kg) was used to test brain/plasma drug concentrations in rats (n = 3) at different time points.

[4] = Pharmacokinetic properties in mice; type: in vivo
Protocol: A biological test protocol was adopted to test drug metabolism of the compound in living mice. To verify the pharmacokinetic properties of the compounds of the present disclosure in vivo, the representative compound QY-18-26 was selected. Single administration via oral gavage (PO, 10 mg/kg) or intravenous injection (IV, 1 mg/kg) was used to test the pharmacokinetic properties of the compound in mice (n = 3).

[5] = Brain penetration (brain/plasma drug concentrations) in mice; type: in vivo
Protocol: as §4

[6] = single dose, PO 10 mg/kg or IV 1 mg/kg

For `C[C@H](NC(=O)c1nnn(C)c1Cc1ccccc1)c1ccc(C#Cc2ccccn2)cc1` [QY-18-26, (S)-5-benzyl-1-methyl-N-(1-(4-(pyridin-2-ylethynyl)phenyl)ethyl)-1H-1,2,3-triazole-4-formamide], the “effect on TNFα-induced body temperature drop, inflammatory response, and death” value [1] was “effectively counteract”, the IC50 (RIPK1 (1-330) protein) was 6.4 nM and the EC50 (L929 cells; stimulation with TNFα + SM164, read-out: EC50 (nM) L929 cells (mouse-derived) TNFα+ SM164) was less than 0.01 nM. The EC50 (L929 cells; stimulation with TNFα alone, read-out: EC50 (nM) L929 cells (mouse-derived) TNFα) was less than 0.01 nM, the EC50 ([2]; stimulation with TNFα + SM164, read-out: EC50 (nM) FADD^-/- Jurkat cells (human-derived) TNFα+ SM164) was less than 0.01 nM and the EC50 ([2]; stimulation with TNFα alone, read-out: EC50 (nM) FADD^-/- Jurkat cells (human-derived) TNFα) was less than 0.01 nM. The “programmed necroptosis inhibitory activity compared to SAR443122” value ([2]; TNFα alone or TNFα + SM164, human derived FADD-deficient Jurkat cells) was “stronger”, the brain-plasma distribution ([3]; at 4 hours) was “remained stable” and the Kp ([3]; rat, brain, single dose PO 5 mg/kg, read-out: concentration in the brain as share of the concentration in plasma) was roughly 0.4. The brain drug concentration ([3]; single dose PO 5 mg/kg) was greater than 5 ng/g, the plasma concentration ([4]; oral gavage 10 mg/kg, for most of the 24-hour period) was greater than 5 ng/mL and the “bioavailability (F)” value [4, 6] was “very high”. For the same compound, the “exposure (AUC)” value [4, 6] was “very high”, the “maximum plasma concentration (Cmax)” value [4, 6] was “very high” and the “time to peak concentration” value [4, 6] was “rapidly reached a peak concentration”. For the same compound, the brain-plasma distribution ([5]; at 4 hours) was “remained stable”, the Kp ([5]; mouse, brain, single dose PO 10 mg/kg or IV 2 mg/kg, read-out: concentration in the brain as share of the concentration in plasma) was roughly 0.4 and the brain drug concentration ([5]; single dose PO 10 mg/kg or IV 2 mg/kg) was greater than 5 ng/g.
